{
  "source": "ChEMBL document CHEMBL6103565",
  "about": "“Current strategies in design and synthesis of antifungals hybrid and chimeric diazine derivatives” (Bioorg Med Chem, 2025)",
  "assay_type_in_all_cases": "functional",
  "key": {"Aspergillus fumigatus [1]": {"test_system": "Aspergillus fumigatus", "experiment": "Antifungal activity against Aspergillus fumigatus assessed as reduction in fungal growth"}, "Candida albicans [2]": {"test_system": "Candida albicans", "experiment": "Antifungal activity against Candida albicans assessed as zone of inhibition by disc diffusion method; also: test concentration or dose not given here"}, "Aspergillus flavus [3]": {"test_system": "Aspergillus flavus", "experiment": "Antifungal activity against Aspergillus flavus assessed as zone of inhibition by disc diffusion method"}, "Candida albicans [4]": {"test_system": "Candida albicans", "experiment": "Antifungal activity against Candida albicans"}, "Geotrichum candidum": {"test_system": "Geotrichum candidum", "experiment": "Antifungal activity against Geotrichum candidum"}, "[5]": {"test_system": "Syncephalastrum racemosum", "experiment": "Antifungal activity against Syncephalastrum racemosum"}, "Candida albicans [6]": {"test_system": "Candida albicans", "experiment": "Antifungal activity against azole-resistant Candida albicans ATCC 10231 assessed as fungal growth inhibition incubated for 24 hrs by CLSI protocol based broth microdilution method"}, "Candida albicans [7]": {"test_system": "Candida albicans", "experiment": "Antifungal activity against azole-resistant Candida albicans ATCC 10231 assessed as reduction in fungal growth by XTT assay"}, "Candida albicans [8]": {"test_system": "Candida albicans", "experiment": "Antifungal activity against Candida albicans assessed as fungal growth inhibition"}, "Penicillium chrysogenum": {"test_system": "Penicillium chrysogenum", "experiment": "Antifungal activity against Penicillium chrysogenum ATCC 20044 assessed as reduction in fungal growth incubated ofr 48 hrs by CLSI micro-dilution method"}, "Aspergillus flavus [9]": {"test_system": "Aspergillus flavus", "experiment": "Antifungal activity against Aspergillus flavus ATCC 20046 assessed as reduction in fungal growth incubated ofr 48 hrs by CLSI micro-dilution method"}, "Fusarium solani": {"test_system": "Fusarium solani", "experiment": "Antifungal activity against Fusarium solani ATCC 20327 assessed as reduction in fungal growth incubated ofr 48 hrs by CLSI micro-dilution method"}, "Penicillium frequentans": {"test_system": "Penicillium frequentans", "experiment": "Antifungal activity against Penicillium frequentans ATCC 10110 assessed as reduction in fungal growth incubated ofr 48 hrs by CLSI micro-dilution method"}, "Alternaria alternata": {"test_system": "Alternaria alternata", "experiment": "Antifungal activity against Alternaria alternata ATCC 8741 assessed as reduction in fungal growth incubated ofr 48 hrs by CLSI micro-dilution method"}, "Aspergillus niger [10]": {"test_system": "Aspergillus niger", "experiment": "Antifungal activity against Aspergillus niger assessed as zone of inhibition by disc diffusion method; also: test concentration or dose not given here"}, "Aspergillus terreus": {"test_system": "Aspergillus terreus", "experiment": "Antifungal activity against Aspergillus terreus assessed as zone of inhibition by disc diffusion method"}, "[11]": {"test_system": "Talaromyces purpureogenus", "experiment": "Antifungal activity against Talaromyces purpureogenus assessed as zone of inhibition by disc diffusion method"}, "Rhizopus microsporus": {"test_system": "Rhizopus microsporus", "experiment": "Antifungal activity against Rhizopus microsporus assessed as diameter of inhibition zone"}, "Candida albicans [12]": {"test_system": "Candida albicans", "experiment": "Antifungal activity against Candida albicans assessed as diameter of inhibition zone"}, "Candida parapsilosis": {"test_system": "Candida parapsilosis", "experiment": "Antifungal activity against Candida parapsilosis ATCC 22019", "conditions": "Lodderomyces parapsilosis"}, "Candida albicans [13]": {"test_system": "Candida albicans", "experiment": "Antifungal activity against Candida albicans ATCC 10231"}, "Aspergillus fumigatus [14]": {"test_system": "Aspergillus fumigatus", "experiment": "Antifungal activity against Aspergillus fumigatus assessed as reduction in fungal growth incubated for 20 to 24 hrs by CLSI based micro-dilution analysis", "conditions": "time 20-24 hrs"}, "Pichia kudriavzevii": {"test_system": "Pichia kudriavzevii", "experiment": "Antifungal activity against Candida krusei ATCC 6258"}, "Aspergillus fumigatus [15]": {"test_system": "Aspergillus fumigatus", "experiment": "Antifungal activity against Aspergillus fumigatus RCMB 002568 assessed as diameter of zone inhibition"}, "Nakaseomyces glabratus [16]": {"test_system": "Nakaseomyces glabratus", "experiment": "Antifungal activity against Candida glabrata ATCC 90030"}, "Candida albicans [17]": {"test_system": "Candida albicans", "experiment": "Antifungal activity against Candida albicans RCMB 005036 assessed as diameter of zone inhibition"}, "Candida tropicalis": {"test_system": "Candida tropicalis", "experiment": "Antifungal activity against Candida tropicalis ATCC 750 assessed as reduction in microbial growth"}, "Candida albicans [18]": {"test_system": "Candida albicans", "experiment": "Antifungal activity against Candida albicans ATCC 90028 assessed as reduction in microbial growth"}, "Nakaseomyces glabratus [19]": {"test_system": "Nakaseomyces glabratus", "experiment": "Antifungal activity against Candida glabrata ATCC 90030 assessed as reduction in microbial growth"}, "Aspergillus fumigatus [20]": {"test_system": "Aspergillus fumigatus", "experiment": "Antifungal activity against Aspergillus fumigatus"}, "Aspergillus niger [21]": {"test_system": "Aspergillus niger", "experiment": "Antifungal activity against Aspergillus niger MTCC 282 assessed as reduction in microbial growth after 24 hrs by broth micro-dilution method"}, "Candida albicans [22]": {"test_system": "Candida albicans", "experiment": "Antifungal activity against Candida albicans ATCC 90028 assessed as growth inhibition incubated for 36 hrs by resazurin dye based assay"}, "Candida albicans [23]": {"test_system": "Candida albicans", "experiment": "Antifungal activity against Candida albicans assessed as reduction in fungal growth incubated for 18 hrs by broth microdilution method"}, "Candida albicans [24]": {"test_system": "Candida albicans", "experiment": "Antifungal activity against azole-resistant Candida albicans ATCC 18804 assessed as fungal growth inhibition incubated for 24 hrs by CLSI protocol based broth microdilution method"}, "Candida albicans [25]": {"test_system": "Candida albicans", "experiment": "Antifungal activity against Candida albicans assessed as reduction in fungal growth incubated for 72 hrs by agar well diffusion method"}, "Aspergillus fumigatus [26]": {"test_system": "Aspergillus fumigatus", "experiment": "Antifungal activity against Aspergillus fumigatus assessed as reduction in fungal growth incubated for 72 hrs by agar well diffusion method"}},
  "data": [
    {"smiles": "O=C1CS/C(=N\\c2nn(-c3ccccc3)nc2C(=O)Nc2cnccn2)N1", "values": [
      {"measurement": "MIC", "setting": "Aspergillus fumigatus [1]", "result": "< 209", "unit": "µg/mL"}
    ]},
    {"smiles": "CC(=O)N/C(=C\\c1ccc(Cl)cc1)c1nc2c(=O)[nH]c(=O)n(Cc3ccccc3Cl)c2[nH]1", "values": [
      {"measurement": "inhibition zone (IZ)", "setting": "Candida albicans [2]", "result": 12, "unit": "mm"},
      {"measurement": "inhibition zone (IZ)", "setting": "Aspergillus flavus [3]", "result": 10, "unit": "mm"}
    ]},
    {"smiles": "CCOC(=O)c1sc2nc3c(nc2c1N)c(C)nn3-c1ccccc1", "values": [
      {"measurement": "MIC", "setting": "Candida albicans [4]", "result": 5, "unit": "µg/mL"},
      {"measurement": "MIC", "setting": "Geotrichum candidum", "result": 5, "unit": "µg/mL"},
      {"measurement": "MIC", "setting": "[5]", "result": 5, "unit": "µg/mL"}
    ]},
    {"smiles": "O=c1ccc(=O)n(-c2nc(-c3cc4ccccc4oc3=O)cs2)[nH]1", "values": [
      {"measurement": "MIC", "setting": "Candida albicans [6]", "result": 5.6, "unit": "µg/mL"}
    ]},
    {"smiles": "O=C1N=C(n2[nH]c(=O)ccc2=O)S/C1=N\\Nc1ccc(-c2ccc(N/N=C3/SC(n4[nH]c(=O)ccc4=O)=NC3=O)cc2)cc1", "values": [
      {"measurement": "MIC", "setting": "Candida albicans [7]", "result": 3.1, "unit": "µg/mL"}
    ]},
    {"smiles": "COC(=O)COc1cccc(OCC(=O)OC)c1C(=O)C[n+]1cc2ccccc2cn1.[Br-]", "values": [
      {"measurement": "MIC", "setting": "Candida albicans [8]", "result": 1.25, "unit": "µg/mL"}
    ]},
    {"smiles": "Cc1ccc(-c2ccc(=O)n(CC3=C(Cn4nc(-c5ccc(C)cc5)ccc4=O)[C@]4(C)CCCC(C)(C)C4=CC3=O)n2)cc1", "values": [
      {"measurement": "MIC", "setting": "Penicillium chrysogenum", "result": 5, "unit": "µg/mL"},
      {"measurement": "MIC", "setting": "Aspergillus flavus [9]", "result": 5, "unit": "µg/mL"},
      {"measurement": "MIC", "setting": "Fusarium solani", "result": 5, "unit": "µg/mL"},
      {"measurement": "MIC", "setting": "Penicillium frequentans", "result": 5, "unit": "µg/mL"},
      {"measurement": "MIC", "setting": "Alternaria alternata", "result": 5, "unit": "µg/mL"}
    ]},
    {"smiles": "C[C@@H](c1ncncc1F)[C@](O)(Cn1cncn1)c1ccc(F)cc1F", "note": "[VORICONAZOLE]", "values": [
      {"measurement": "inhibition zone (IZ)", "setting": "Aspergillus niger [10]", "result": 20, "unit": "mm"},
      {"measurement": "inhibition zone (IZ)", "setting": "Aspergillus terreus", "result": 20, "unit": "mm"},
      {"measurement": "inhibition zone (IZ)", "setting": "[11]", "result": 17, "unit": "mm"}
    ]},
    {"smiles": "O=C1CCC(=O)N(CC(=O)n2c3ccccc3c3ccccc32)N1", "values": [
      {"measurement": "inhibition zone (IZ)", "setting": "Rhizopus microsporus", "result": 14, "unit": "mm"},
      {"measurement": "inhibition zone (IZ)", "setting": "Candida albicans [12]", "result": 18, "unit": "mm"}
    ]},
    {"smiles": "CC(=O)N1CCN(c2ccc(OC[C@H]3CO[C@](Cn4ccnc4)(c4ccc(Cl)cc4Cl)O3)cc2)CC1", "values": [
      {"measurement": "MIC", "setting": "Candida parapsilosis", "result": 0.78, "unit": "µg/mL"},
      {"measurement": "MIC50", "setting": "Candida albicans [13]", "result": 0.78, "unit": "µg/mL"},
      {"measurement": "MIC", "setting": "Aspergillus fumigatus [14]", "result": 18, "unit": "µg/mL"},
      {"measurement": "MIC", "setting": "Pichia kudriavzevii", "result": 0.78, "unit": "µg/mL"},
      {"measurement": "inhibition zone (IZ)", "setting": "Aspergillus fumigatus [15]", "result": 23, "unit": "mm"},
      {"measurement": "MIC", "setting": "Nakaseomyces glabratus [16]", "result": 0.78, "unit": "µg/mL"},
      {"measurement": "inhibition zone (IZ)", "setting": "Candida albicans [17]", "result": 25, "unit": "mm"}
    ]},
    {"smiles": "C[C@]12CC[C@H](O)CC1=CC[C@@H]1[C@@H]2CC[C@]2(C)C3=C(C[C@@H]12)C(c1ccccc1)N1C=CSC1=N3", "note": "(stereo partly drawn)", "values": [
      {"measurement": "MIC", "setting": "Candida tropicalis", "result": "> 1000", "unit": "µg/mL"},
      {"measurement": "MIC", "setting": "Candida albicans [18]", "result": 750, "unit": "µg/mL"},
      {"measurement": "MIC", "setting": "Nakaseomyces glabratus [19]", "result": "> 1000", "unit": "µg/mL"}
    ]},
    {"smiles": "Cc1cc(Nc2ccc(=O)n(-c3ccccc3)n2)no1", "values": [
      {"measurement": "MIC", "setting": "Aspergillus fumigatus [20]", "result": 18, "unit": "µg/mL"},
      {"measurement": "MIC", "setting": "Candida albicans [4]", "result": 18, "unit": "µg/mL"}
    ]},
    {"smiles": "Clc1cnc(C2=Nc3ccccc3SC(c3cccs3)C2)cn1", "note": "(stereo not drawn)", "values": [
      {"measurement": "MIC", "setting": "Aspergillus niger [21]", "result": 44, "unit": "µM"}
    ]},
    {"smiles": "O=C(Nc1ccc(F)cc1)N1CCn2c(nnc2C(F)(F)F)C1", "values": [
      {"measurement": "MIC", "setting": "Candida albicans [22]", "result": 6.25, "unit": "µg/mL"}
    ]},
    {"smiles": "O=C1N/C(=N/c2nn(-c3ccccc3)nc2C(=O)Nc2cnccn2)S/C1=C\\c1ccccc1", "values": [
      {"measurement": "MIC", "setting": "Aspergillus fumigatus [1]", "result": "< 214", "unit": "µg/mL"}
    ]},
    {"smiles": "Cc1nc2c(sc3nc4c(nc32)c(C)nn4-c2ccccc2)c(=O)o1", "values": [
      {"measurement": "MIC", "setting": "Candida albicans [4]", "result": 3, "unit": "µg/mL"},
      {"measurement": "MIC", "setting": "Geotrichum candidum", "result": 4, "unit": "µg/mL"},
      {"measurement": "MIC", "setting": "[5]", "result": 3, "unit": "µg/mL"}
    ]},
    {"smiles": "O=C(Nc1ccc(F)c(F)c1)N1CCn2c(nnc2C(F)(F)F)C1", "values": [
      {"measurement": "MIC", "setting": "Candida albicans [22]", "result": 6.25, "unit": "µg/mL"}
    ]},
    {"smiles": "Cc1cc(=O)n2nc(C(=O)NN)nc2[nH]1", "values": [
      {"measurement": "MIC", "setting": "Candida albicans [23]", "result": 4, "unit": "µg/mL"}
    ]},
    {"smiles": "O=c1ccc(=O)n(-c2nc(-c3cccs3)cs2)[nH]1", "values": [
      {"measurement": "MIC", "setting": "Candida albicans [24]", "result": 1.9, "unit": "µg/mL"},
      {"measurement": "MIC", "setting": "Candida albicans [6]", "result": 3.9, "unit": "µg/mL"}
    ]},
    {"smiles": "Cc1nnc2c(C#N)c(N)n(-c3ccc(N)cc3)nc1-2", "values": [
      {"measurement": "MIC", "setting": "Candida albicans [25]", "result": 3.9, "unit": "µg/mL"},
      {"measurement": "MIC", "setting": "Aspergillus fumigatus [26]", "result": 0.9, "unit": "µg/mL"}
    ]}
  ]
}
